Results on one compound are retold here after the NIST ThermoML archive (doi:10.1016/j.jct.2016.05.005).

Numbers after ± are expanded uncertainties.

For data set [1] the following is noted: Crystal; DTA.
A short description of data set [2]: Molar enthalpy of transition or fusion. The conditions noted are these: Crystal; DSC.

Turning to `COC(=O)N(OC)c1ccccc1COc1ccn(-c2ccc(Cl)cc2)n1` [Pyraclostrobin], the Normal melting temperature in data set [1] was found to be 60.6 ± 0.6 °C. For the same compound, in data set [2], the “Molar enthalpy of transition or fusion” value turned out to be 7.42 ± 0.311 kcal/mol.
